Measured values taken from patent US20230248717A1, “N-(3-HYDROXYPYRIDINE-2-CARBONYL)GLYCINE-BASED ANTITUMOR DRUG SENSITIZER AND APPLICATION THEREOF” (ZHEJIANG UNIVERSITY, priority 2019, published 2023).
≈ marks a conversion by molar mass, not a printed value. Read-outs that look alike come from different tables or passages of the source.

Legend:
[1] = tested on: CT26 mouse colon cancer cells;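 note: MTT read-out taken as absorbance at 562 nm after a 3 h dye incubation, medium-only wells as blank, values averaged over three independent experiments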
Procedure: (§1) CT26 cells (MC38 cells, 4T1 cells, B16FIO cells, HePa1-6 cells, H22 cells, LLC cells, MB49 cells, P388 cells, C6 cells, BXPC-3 cells, Hela cells, MDA-MB-231 cells, A2780 cells. PC3 cells. HepG2 cells, and HGC-27 cells) were cultured at 5,000 cells/well in a 96-well plate, 100 μL of a medium was added to each well, and the cells were incubated in a 37° C. constant-temperature incubator with 5% CO2 and 95% humidity for 24 h. 100 μL of different concentrations of drugs (DOX: 0.01 μg/mL to 10 μg/mL; PTX: 0.01 μg/mL to 50 μg/mL; Cela: 0.05 μg/mL to 1 μg/mL; sensitizer: 5 μg/mL) were added to each well, while 100 lit of a medium solution was added to the blank group. After culturing for 48 h, centrifugation was conducted at 1,100 rpm for 6 min, the medium in each well was discarded, 100 μL of an 11,11T working solution was added, and the culturing was continued for 3 h. Centrifugation was conducted at 3,300 rpm. for 5 min, the MITT medium in each well was discarded, 100 pt, of the DMSO was added, and the plate was shaken for 5 min to dissolve all crystals in each well. An absorbance of the sample at 562 nm was detected by a microplate reader. Each set of data was an average of three independent experimental results on the same sample.

[2] = tested on: CT26 mouse colon cancer cells; assay: Cytotoxicity (MTT) in combination with chemotherapeutic drugs;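 note: MTT read-out taken as absorbance at 562 nm after a 3 h dye incubation, medium-only wells as blank, values averaged over three independent experiments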
Procedure: as §1

[3] = tested on: PD-L1 expression in CT26 cells; assay: PD-L1 expression in tumor cells by Western blot; format: cell-based, mouse; conditions: 5 μM, 48 h
Procedure: CT26 cells were inoculated in a 6-well plate at 2×10^4 cells per well and placed in a 37° C. incubator. After the cells adhered, DMSO solutions (5 μM) of compounds 1 to 8 were added separately, and the incubation was continued for 48 h. The medium was discarded, the cells were rinsed three times with pre-cooled PBS, and the washing solution was discarded. 0.2 nrii, of a cell lysis solution containing a protease inhibitor was added to each well and placed on ice to conduct lysis for 30 min.
After the lysis was completed, a lysate and cell debris were scraped to one side of the Petri dish with a cell scraper, the lysate was transferred to a 1.5 mL Ep tube with a pipette, centrifuged at 4° C. (12,000 rpm/5 min), and a supernatant was collected to determine its protein concentration.
The protein sample was diluted with a 1UPAlysis buffer to a certain concentration, 5×SDS loading buffer was added in a protein amount of 1 μg/μL, incubated on a metal bath at 95° C. for 5 min, cooled to room temperature, and the sample was loaded to an SDS-PAGE electrophoresis gel (5% for stacking gel and 12% for resolving gel). Under a voltage of 90 V, the protein was run to the bottom of the stacking gel to form a straight line, then the voltage was adjusted to 125 V, and the electrophoresis was stopped after the bromophenol blue appeared. […]

[4] = tested on: mRNA expression of PD-L1 in CT26 cells; assay: PD-L1 mRNA expression in tumor cells by qPCR; format: cell-based, mouse; conditions: 5 μM, 48 h, GAPDH internal reference
Procedure: CT26 cells were inoculated in a 6-well plate at 2×10^5 cells per well and placed in a 37° C. incubator. After the cells adhered, DMSO solutions (5 μM) of the compounds of the present disclosure were added separately, and the incubation was continued for 48 h. Total RNA was lysed and extracted, and reverse transcription and PCR experiments were conducted to detect an RNA level of PD-L1 in CT26 cells, using a GAPDH gene as an internal reference.

[5] = tested on: HIF-1α expression in CT26 cells; assay: HIF-1α expression in tumor cells by flow cytometry; format: cell-based, mouse; conditions: 5 μM, 24 h; for expression of HIF-1α in tumor cells: vs blank control
Procedure: CT26 cells were evenly plated in a 6-well plate at 2×10^4 cells per well. After the cells adhered, DMSO solutions (5 μM) of the different compounds of the present disclosure were added separately, and the incubation was continued for 24 h. The medium was discarded, the cells were rinsed three times with PBS, and 0.2 mL of trypsin containing EDTA was added to each well. The digested cells were collected in a flow tube, and a supernatant was removed by centrifugation; the cells were resuspended in a PBS containing 5% goat serum, and an FITC anti-mouse HIF-1α antibody (1 μg/1×10^6 cells) was added, incubated at 4° C. for 30 min, and washed three times with PBS, and subjected to flow detection on-machine.

[6] = tested on: Raw264.7 M2 tumor-associated macrophages (TAM2s); assay: Polarization of macrophages from M2 to M1 (PCR); format: cell-based, mouse; conditions: IL-4-induced TAM2s, 5 μM, 24 h, vs untreated TAM2s
Procedure: A mouse macrophage cell line Raw264.7 was inoculated in a 24-well plate. After 12 hours of cell adhesion, the cells were further cultured for one day in a medium containing IL-4 (40 ng/mL) to induce the cells to differentiate into M2 tumor-associated macrophages (TAM2s). DMSO solutions (5 μM) of different groups of the compounds of the present disclosure were added to the TAM2s to treat for 24 h, the cells were collected and lysed, and a total RNA was extracted. The total RNA was subjected to reverse transcription and PCR experiments to detect the RNA levels of an M2 macrophage-specific protein argl and an M1 macrophage-specific protein Nos2 with an hprt gene as an internal reference.

[7] = tested on: calreticulin in CT26 tumor cells; assay: Drug-induced immunogenic death (calreticulin, confocal); format: cell-based, mouse; conditions: doxorubicin-induced CT26 tumor cells, combination with DOX vs DOX alone, 24 h
Procedure: CT26 cells were plated in confocal culture dishes, and after overnight cell adherence, different drug treatment groups were added, and the incubation was continued for 24 h. The medium was discarded, the cells were rinsed 3 times with PBS, and fixated with 4% paraformaldehyde for 10 min. The cells were rinsed 3 times with PBS for 3 min each time, a 3% BSA solution was added for blocking for 30 min at 37° C., and the blocking solution was removed with absorbent paper. 200 μuL of a calreticulin antibody (FITC-anti-CRT, 1:200) was added to each well and incubated at room temperature for I h in the dark. The cells were rinsed with PBS 3 times for 3 min each time, then a DAPI staining solution was added to each dish and incubated in the dark for 5 min. After washing three times with PBS, the cells were observed under a laser con focal microscope.

[8] = tested on: PD-L1 expression in CT26 cells; assay: PD-L1 expression in tumor cells by flow cytometry; format: cell-based, mouse; conditions: 24 h, blank group 32.7%
Procedure: CT26 cells were inoculated in a 6-well plate at 2×10^4 cells per well. After the cells adhered. […] The medium was discarded, the cells were rinsed three times with PBS, and 0.2 mL of trypsin containing EDTA was added to each well. The digested cells were collected in a flow tube, and a supernatant was removed by centrifugation. The cells were resuspended in a PBS containing 5% goat serum, and an anti-mouse PD-L1 primary antibody (1 μg/1×10^6 cells) was added, and the cells were incubated at 4° C. for 30 min and washed three times with PBS. An equivalent amount of APC-labeled goat anti-rabbit secondary antibody was added and incubation was continued for 30 min; the cells were washed 3 times with PBS and subjected to flow detection on-machine.

[9] = CT26 cell line, chemotherapeutic drug in combination with compound 7 (sensitizer 5 μg/mL), 48 h

CC(C)=CCC[C@]1(C)C=Cc2c(O)c3c(c(CC=C(C)C)c2O1)O[C@]12C(=C[C@@H]4C[C@H]1C(C)(C)O[C@@]2(C/C=C(/C)C(=O)O)C4=O)C3=O [Gambogic acid]
IC50 [1]: 2.18 ± 0.454 µg/mL (≈ 3.47 µM)
IC50, Compound 7+ [2, 9]: 0.792 ± 0.181 µg/mL

CCc1c2c(nc3ccc(OC(=O)N4CCC(N5CCCCC5)CC4)cc13)-c1cc3c(c(=O)n1C2)COC(=O)[C@]3(O)CC [Irinotecan]
IC50 [1]: 2.42 ± 0.197 µg/mL (≈ 4.12 µM)
IC50, Compound 7+ [2, 9]: 1.415 ± 0.022 µg/mL

O=C1c2c(O)ccc(O)c2C(=O)c2c(NCCNCCO)ccc(NCCNCCO)c21 [Mitoxantrone]
IC50 [1]: 2.12 ± 0.297 µg/mL (≈ 4.76 µM)
IC50, Compound 7+ [2, 9]: 0.815 ± 0.021 µg/mL

O=C1[O][Pt]2([NH][C@@H]3CCCC[C@H]3[NH]2)[O]C1=O [Oxaliplatin]
IC50, Compound 7+ [2]: 0.197 ± 0.022 µg/mL
IC50, Compound 7− [2]: 0.650 ± 0.009 µg/mL

CC1=C(O)C(=O)C=C2C1=CC=C1[C@@]2(C)CC[C@@]2(C)[C@@H]3C[C@](C)(C(=O)O)CC[C@]3(C)CC[C@]12C [Tripterine]
IC50, Compound 7+ [2]: 1.592 ± 0.142 µg/mL
IC50, Compound 7− [2]: 5.219 ± 0.242 µg/mL

CC[C@]1(O)C[C@H]2CN(CCc3c([nH]c4ccccc34)[C@@](C(=O)OC)(c3cc4c(cc3OC)N(C=O)[C@H]3[C@@](O)(C(=O)OC)[C@H](OC(C)=O)[C@]5(CC)C=CCN6CC[C@]43[C@@H]65)C2)C1 [Vincristine]
IC50 [1]: 68.2 ± 2.29 µg/mL (≈ 82.6 µM)
IC50, Compound 7+ [2, 9]: 44.312 ± 1.851 µg/mL

O=C(O)CNC(=O)c1ncc(-c2cccc(Cl)c2)cc1O [compound 6]
expression of PD-L1 in tumor cells (Western blot) [3]: best effect
mRNA expression level of PD-L1 [4]: best effect
expression of HIF-1α in tumor cells [5]: best effect

Cc1nc(C(=O)NCC(=O)O)c(O)c2ccc(Oc3ccccc3)cc12 [compound 7, N-(4-Hydroxy-1-methyl-7-phenoxyisoquinoline-3-carbonyl)glycine]
cell viability, combination with chemotherapeutic drug DOX vs chemotherapeutic drug alone ([2]; CT26 cells, sensitizer 5 μg/mL, 48 h): best effect
toxicity of doxorubicin (DOX), paclitaxel (PTX), oxaliplatin (OXA) or camptothecin (irinotecan, SN38) on CT26 cells ([2]; combination with compound 7, 48 h): increase the toxicity
RNA level of M1 macrophage-specific protein Nos2 [6]: significantly increased
RNA level of M2 macrophage-specific protein argl [6]: significantly decreased
expression of PD-L1 in tumor cells (Western blot) [3]: best effect
mRNA expression level of PD-L1 [4]: best effect
calreticulin expression (immunogenic death) [7]: express more calreticulin
PD-L1 expression rate ([8]; 10 μM compound 7 group): 18.8%
PD-L1 expression rate ([8]; 2.5 compound 7 group): 24%
PD-L1 expression rate ([8]; 5 1μM compound 7 group): 20.8%
reduction of HIF-1α [5]: 45%
expression of HIF-1α in tumor cells [5]: best effect
